The values below come from patent US20260297083A1, “SUBSTITUTED ACETYLENE COMPOUND DERIVATIVES AND THEIR PHARMACEUTICAL USE” (AVELOS THERAPEUTICS INC., priority 2023, published 2026).

By IC50 is commonly meant the concentration that gives 50% inhibition.

The assay addresses T1, Polθ polymerase domain (amino acids 1792-2590) (Homo sapiens, UniProt O75417).
T1 construct: 10×Histidine-SUMO (N, cleaved yes); made in house; host or cells: E. coli
T1 sequence (O75417 1792-2590): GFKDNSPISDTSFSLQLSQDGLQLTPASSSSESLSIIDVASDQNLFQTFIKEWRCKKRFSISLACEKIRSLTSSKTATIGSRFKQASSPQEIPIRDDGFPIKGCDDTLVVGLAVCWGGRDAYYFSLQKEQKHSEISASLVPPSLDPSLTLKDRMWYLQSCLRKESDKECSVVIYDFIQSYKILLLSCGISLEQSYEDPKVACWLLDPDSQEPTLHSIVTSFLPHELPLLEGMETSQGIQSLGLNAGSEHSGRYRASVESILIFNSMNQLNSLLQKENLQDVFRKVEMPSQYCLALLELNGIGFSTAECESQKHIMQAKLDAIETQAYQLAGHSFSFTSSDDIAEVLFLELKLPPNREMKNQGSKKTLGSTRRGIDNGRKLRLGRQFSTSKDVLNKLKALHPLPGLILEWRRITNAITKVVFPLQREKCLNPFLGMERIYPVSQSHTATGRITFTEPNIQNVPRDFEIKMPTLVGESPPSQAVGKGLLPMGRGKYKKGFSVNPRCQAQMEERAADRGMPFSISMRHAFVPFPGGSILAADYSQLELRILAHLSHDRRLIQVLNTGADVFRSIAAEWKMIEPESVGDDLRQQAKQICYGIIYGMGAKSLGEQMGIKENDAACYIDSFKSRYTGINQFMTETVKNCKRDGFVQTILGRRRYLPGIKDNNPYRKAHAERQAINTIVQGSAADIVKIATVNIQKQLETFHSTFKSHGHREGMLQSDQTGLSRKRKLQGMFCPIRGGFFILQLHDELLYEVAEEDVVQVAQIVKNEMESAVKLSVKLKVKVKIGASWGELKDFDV
In words: Picogreen assay of Polθ polymerase activity. Type of assay: biochemical. The conditions noted are these: 12-point concentration response, 90 minutes incubation at room temperature, 8 nM Polθ in 2×polymerase mixture, read-out: PolQ IC50. From the text: The DNA sequence of the polQ gene (Genebank ID #NM 199420.4) was chemically synthesized. The DNA sequence encoding the polymerase domain (amino acids 1792-2590) was subcloned into an E. coli expression plasmid, resulting in the fusion of 10×Histidine-SUMO tag at the N terminus of the polymerase domain.
The protein was expressed in E. coli. and purified using a 2-step IMAC (immobilized metal chelate affinity chromatography) procedure. Briefly stated, the overexpressed E. coli lysate was subjected to Ni-NTA purification, and an N-terminal tag was digested by a SUMO protease. Then, the excised fragment of 10×Histidine-SUMO tag was removed using Ni-NTA beads. The resulting protein was used for the Picogreen assay, as described below.
The methods of DNA complex preparation were slightly modified from the protocol previously reported (Zatreanu et al., 2021, Nature Communications, 12:3636). Briefly stated, polθ substrate was prepared by mixing Oligo1 (5′-GCG GCT GTC ATA AG-3′) and Oligo2 (5′-GCTACATTGACAATGGCATCAAATCTCAGATTGCGTCTTATGACAGCCGCG-3′) in an annealing buffer (20 mM Tris-Cl, pH 7.5, 50 mM NaCl) to the final concentration of 22 uM and 20 uM, respectively. The Polθ product was prepared by mixing Oligo3 (5′-CGCGGCTGTCATAAGACGCAATCTGAGATTTGATGCCATTGTCAATGTAGC-3′) and Oligo2 (5′-GCTACATTGACAATGGCATCAAATCTCAGATTGCGTCTTATGACAGCCGCG-3′) to the final concentration of 20 uM. The polθ product was used for the top signal control in the Picogreen assay. Both substrate and product were heated to 95° C. […] and cooled slowly to room temperature.
To evaluate the ability of test compounds to inhibit the activity of polθ in vitro, a Picogreen assay was performed to measure polθ IC50 (nM).
The reactions were performed at room temperature in an assay buffer (25 mM Tris-HCl, pH 7.5, 12.5 mM NaCl, 0.5 mM MgCl2, 5% (v/v) glycerol, 0.01% (v/v) Triton X-100, 0.01% (w/v) Bovine serum albumin, 1 mM DTT). Thirty microliters of 2×polymerase mixture (8 nM Polθ enzyme in an assay buffer) were distributed to 96 well plates, test compounds were prepared by dilution in 100% DMSO to obtain the correct dose range for a 12-point concentration response and 1 μl was dispensed into each well, and then 30 microliters of 2×substrate mix (100 nM DNA and 40 uM dNTPs in an assay buffer) was added. After 90 minutes of incubation, the reaction was stopped and DNA was stained by adding 40 microliters of Picogreen solution (1:80 dilution of Picogreen, Invitrogen, Cat #P7581, 25 mM Tris-HCl, pH 7.5, 10 mM EDTA, pH 7.5).
The fluorescence intensity was measured at excitation/emission=485 nm/520 nm using an Ensight plate reader (Perkin Elmer). The data was analyzed by GraphPad Prism software (Version 8.4.3) to calculate IC50.
On to `Cc1cc(C(F)(F)F)cc(N2[C@H](C(=O)N(CC#Cc3cnc(N4C[C@H](C)N(C(C)C)[C@@H](C)C4)cn3)c3ccc(F)c(C)c3)CCS2(=O)=O)n1` (stereo in doubt) [compound 54], for which the IC50 is above 101 nM. In the case of `Cc1cccc(N(CC#Cc2ccc(N)nn2)C(=O)[C@@H]2CCC(=O)N2c2cc(C(F)(F)F)cc(C)n2)c1` [compound 1], the IC50 lay within 1 to 50 nM. For `Cc1cc(C(F)(F)F)cc(N2C(=O)CC[C@H]2C(=O)N(CC#Cc2ccc(N)nn2)c2ccc(F)c(C)c2F)n1` [compound 2], the IC50 fell in the range of 1 to 50 nM. The same measure for `Cc1cc(C(F)(F)F)cc(N2C(=O)CC[C@H]2C(=O)N(CC#Cc2ccc(N)nn2)c2ccc(F)c(Cl)c2)n1` [compound 3]: 1 to 50 nM. The same measure for `Cc1cc(C(F)(F)F)cc(N2C(=O)CC[C@H]2C(=O)N(CC#Cc2ccc(N)nn2)c2ccc(F)c(Cl)c2F)n1` [compound 4]: 1 to 50 nM.

As for `Cc1cc(C(F)(F)F)cc(N2C(=O)CC[C@H]2C(=O)N(CC#Cc2ccc(N)nn2)c2ccc(F)c(C)c2)n1` [compound 5], the IC50 is 1 to 50 nM.

As to `Cc1cc(C(F)(F)F)cc(N2C(=O)CC[C@H]2C(=O)N(CC#Cc2cnc(N)cn2)c2ccc(F)c(C)c2)n1` [compound 6], the IC50 lay within 1 to 50 nM.

Regarding `Cc1cc(C(F)(F)F)cc(N2C(=O)CC[C@H]2C(=O)N(CC#Cc2cccc(=O)[nH]2)c2ccc(F)c(C)c2)n1` [compound 7], the IC50 fell in the range of 1 to 50 nM. For `Cc1cc(C(F)(F)F)cc(N2C(=O)CC[C@H]2C(=O)N(CC#Cc2ccc(F)cn2)c2ccc(F)c(C)c2)n1` [compound 8], the IC50 was 1 to 50 nM.

Regarding `Cc1cc(C(F)(F)F)cc(N2C(=O)CC[C@H]2C(=O)N(CC#Cc2cncn2C)c2ccc(F)c(C)c2)n1` [compound 9], the half-inhibitory concentration (IC50) is 1 to 50 nM. As for `Cc1cc(C(F)(F)F)cc(N2C(=O)CC[C@H]2C(=O)N(CC#Cc2cnc(N3CCOCC3)cn2)c2ccc(F)c(C)c2)n1` [compound 10], the IC50 fell in the range of 1 to 50 nM. Take `CCN1CCN(c2cnc(C#CCN(C(=O)[C@@H]3CCC(=O)N3c3cc(C(F)(F)F)cc(C)n3)c3ccc(F)c(C)c3)cn2)CC1` [compound 11]: the IC50 was 1 to 50 nM. On to `Cc1cc(C(F)(F)F)cc(N2C(=O)CC[C@H]2C(=O)N(CC#Cc2ccc(C(N)=O)nc2)c2ccc(F)c(C)c2)n1` [compound 12], for which the IC50 is above 101 nM. In the case of `CCN1CCN(CC#CCN(C(=O)[C@@H]2CCC(=O)N2c2cc(C(F)(F)F)cc(C)n2)c2ccc(F)c(C)c2F)CC1` [compound 13], the IC50 lay in the range of 1 to 50 nM. The same measure for `Cc1cc(C(F)(F)F)cc(N2C(=O)CC[C@H]2C(=O)N(CC#CCN2CCOCC2)c2ccc(F)c(C)c2F)n1` [compound 14]: 1 to 50 nM; for `Cc1cc(C(F)(F)F)cc(N2C(=O)CC[C@H]2C(=O)N(CC#CCN2CCN(c3cnccn3)CC2)c2ccc(F)c(C)c2F)n1` [compound 15]: 1 to 50 nM; for `Cc1cc(C(F)(F)F)cc(N2C(=O)CC[C@H]2C(=O)N(CC#CCN2CCN(c3ncccn3)CC2)c2ccc(F)c(C)c2F)n1` [compound 16]: 1 to 50 nM. The same measure for `Cc1cc(C(F)(F)F)cc(N2[C@H](C(=O)N(CC#Cc3cnc(N)cn3)c3ccc(F)c(C)c3F)CCS2(=O)=O)n1` [compound 17]: 1 to 50 nM; for `Cc1cc(C(F)(F)F)cc(N2[C@H](C(=O)N(CC#Cc3ccc(N)nn3)c3ccc(F)c(C)c3)CCS2(=O)=O)n1` [compound 18]: 1 to 50 nM; for `Cc1cc(C(F)(F)F)cc(N2[C@H](C(=O)N(CC#Cc3ccc(NC(C)C)nn3)c3ccc(F)c(C)c3)CCS2(=O)=O)n1` [compound 20]: 1 to 50 nM. For the compound `Cc1cc(C(F)(F)F)cc(N2[C@H](C(=O)N(CC#Cc3ccc(NC(C)C)nn3)c3ccc(F)c(C)c3F)CCS2(=O)=O)n1` [compound 21], the IC50 lay within 1 to 50 nM. As for `CC(=O)Nc1ccc(C#CCN(C(=O)[C@@H]2CCS(=O)(=O)N2c2cc(C(F)(F)F)cc(C)n2)c2ccc(F)c(C)c2)nn1` [compound 22], the half-inhibitory concentration (IC50) lay in the range of 1 to 50 nM. As for `Cc1cc(C(F)(F)F)cc(N2[C@H](C(=O)N(CC#Cc3ccc(N4CCOCC4)nn3)c3ccc(F)c(C)c3)CCS2(=O)=O)n1` [compound 23], the IC50 lay in the range of 1 to 50 nM. Take `CCN1CCN(c2ccc(C#CCN(C(=O)[C@@H]3CCS(=O)(=O)N3c3cc(C(F)(F)F)cc(C)n3)c3ccc(F)c(C)c3)nn2)CC1` [compound 24]: the IC50 fell in the range of 1 to 50 nM. On to `CCN(CC)c1ccc(C#CCN(C(=O)[C@@H]2CCS(=O)(=O)N2c2cc(C(F)(F)F)cc(C)n2)c2ccc(F)c(C)c2)nn1` [compound 25], for which the IC50 fell in the range of 1 to 50 nM. The same measure for `Cc1cc(C(F)(F)F)cc(N2[C@H](C(=O)N(CC#Cc3ccc(=O)[nH]n3)c3ccc(F)c(C)c3)CCS2(=O)=O)n1` [compound 26]: 1 to 50 nM; for `COc1ccc(C#CCN(C(=O)[C@@H]2CCS(=O)(=O)N2c2cc(C(F)(F)F)cc(C)n2)c2ccc(F)c(C)c2)nn1` [compound 27]: 1 to 50 nM; for `Cc1cc(C(F)(F)F)cc(N2[C@H](C(=O)N(CC#Cc3ccc(OC(F)F)nn3)c3ccc(F)c(C)c3)CCS2(=O)=O)n1` [compound 28]: 1 to 50 nM. In the case of `Cc1cc(C(F)(F)F)cc(N2[C@H](C(=O)N(CC#Cc3ccc(C(N)=O)nn3)c3ccc(F)c(C)c3)CCS2(=O)=O)n1` [compound 29], the IC50 was in the range of 1 to 50 nM. In the case of `Cc1cc(C(F)(F)F)cc(N2[C@H](C(=O)N(CC#Cc3cnc(N)cn3)c3ccc(F)c(C)c3)CCS2(=O)=O)n1` [compound 30], the IC50 is 1 to 50 nM. Turning to `Cc1cc(C(F)(F)F)cc(N2[C@@H](C(=O)N(CC#Cc3cnc(N)cn3)c3ccc(F)c(C)c3F)CCS2(=O)=O)n1` [compound 31], the 50% inhibitory concentration (IC50) is above 101 nM. Turning to `Cc1ccc(F)c(N(CC#Cc2cnc(N)cn2)C(=O)[C@@H]2CCS(=O)(=O)N2c2cc(C(F)(F)F)cc(C)n2)c1` [compound 33], the IC50 lay within 1 to 50 nM. With `CC(=O)Nc1cnc(C#CCN(C(=O)[C@@H]2CCS(=O)(=O)N2c2cc(C(F)(F)F)cc(C)n2)c2ccc(F)c(C)c2)cn1` [compound 34], the IC50 lay in the range of 1 to 50 nM.

As for `Cc1cc(C(F)(F)F)cc(N2[C@H](C(=O)N(CC#Cc3cnc(NC(N)=O)cn3)c3ccc(F)c(C)c3)CCS2(=O)=O)n1` [compound 35], the IC50 lay within 1 to 50 nM. For the compound `Cc1cc(C(F)(F)F)cc(N2[C@H](C(=O)N(CC#Cc3cnc(NC(C)C)cn3)c3ccc(F)c(C)c3)CCS2(=O)=O)n1` [compound 36], the IC50 was in the range of 1 to 50 nM. On to `Cc1ccc(F)c(N(CC#Cc2cnc(NC(C)C)cn2)C(=O)[C@@H]2CCS(=O)(=O)N2c2cc(C(F)(F)F)cc(C)n2)c1` [compound 37], for which the IC50 was 1 to 50 nM.

For `Cc1cc(C(F)(F)F)cc(N2[C@H](C(=O)N(CC#Cc3cnc(N4CC5(COC5)C4)cn3)c3ccc(F)c(C)c3)CCS2(=O)=O)n1` [compound 38], the IC50 is 1 to 50 nM.
